Data published in patent publication US9051310B2, “Nicotinamide derivative or salt thereof” (FUJIFILM Corporation, priority 2011, dated 2015).

Assays:
[1] = target: T1, glutathione S-transferase (GST)-linked full-length human Syk protein (Homo sapiens, UniProt P43405); test: Syk enzyme assay; assay type: biochemical; conditions: 0.83 nM Syk, time-resolved fluorescence; read-out: IC50 of Syk-inhibitory activity
T1 construct: glutathione S-transferase (GST)-linked full-length human Syk protein; purchased Carna Biosciences; host or cells: Baculovirus expression system
In short: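 Phosphotyrosine on a biotin-peptide substrate (0.5 μM) was read by time-resolved fluorescence at 615 and 665 nm with Eu-anti-pTyr antibody and APC-streptavidin after 1 h EDTA stop.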

[2] = test system: THP-1 cells (TNFα secretion on human IgG-coated plate); test: TNFα generation assay; assay type: cell-based; conditions: IFN-γ differentiated THP-1 cells, 7 hours, AlphaLISA, read-out: IC50 of TNFα generation inhibitory activity
In short: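 Secreted TNFα was measured by AlphaLISA after 7 h of culture on human IgG-coated wells (coating at 10 μg/ml), with 5×10^4 cells/well. Before plating, the cells had been treated with compound for 30 min at room temperature. The cells were macrophage-like THP-1, produced by a 2-day exposure to 10 ng/ml IFN-γ.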

Row | Compound | IC50 [1] | IC50 [2]
1 | CC[C@@H](Nc1nc(Nc2ccc3c(c2)c(C)nn3CCOC)c(C(N)=O)cc1F)[C@H](C)N [Example 2-131, 6-(((2S,3R)-2-aminopentan-3-yl)amino)-5-fluoro-2-((1-(2-methoxyethyl)-3-methyl-1H-indazol-5-yl)amino)nicotinamide] | < 10 nM | 65 to 130 nM
2 | CCC[C@@H](Nc1nc(Nc2ccc3c(c2)c(C)nn3CCOC)c(C(N)=O)cc1F)[C@H](C)N [Example 2-132, 6-(((2S,3R)-2-aminohexan-3-yl)amino)-5-fluoro-2-((1-(2-methoxyethyl)-3-methyl-1H-indazol-5-yl)amino)nicotinamide] | < 10 nM | 130 to 200 nM
3 | COCCn1nc(C)c2cc(Nc3nc(N[C@H](C4CC4)[C@H](C)N)c(F)cc3C(N)=O)ccc21 [Example 2-133, 6-(((1R,2S)-2-amino-1-cyclopropylpropyl)amino)-5-fluoro-((1-(2-methoxyethyl)-3-methyl-1H-indazol-5-yl)amino)nicotinamide] | < 10 nM | 65 to 130 nM
4 | COCCn1nc(C)c2cc(Nc3nc(N[C@H](CC(C)C)[C@H](C)N)c(F)cc3C(N)=O)ccc21 [Example 2-134, 6-(((2S,3R)-2-amino-5-methylhexan-3-yl)amino)-5-fluoro-2-((1-(2-methoxyethyl)-3-methyl-1H-indazol-5-yl)amino)nicotinamide] | < 10 nM | 130 to 200 nM
5 | Cc1nn(CC(F)F)c2ccc(Nc3nc(N[C@@H](CN)CC(C)C)c(F)cc3C(N)=O)cc12 [Example 2-137] | < 10 nM | 65 to 130 nM
6 | CCC[C@@H](Nc1nc(Nc2ccc3c(c2)c(C)nn3CC(F)F)c(C(N)=O)cc1F)[C@H](C)N [Example 2-138] | < 10 nM | < 65 nM
7 | COC[C@@H](Nc1nc(Nc2ccc3c(c2)c(C)nn3CC(F)F)c(C(N)=O)cc1F)[C@H](C)N [Example 2-139, 6-(((2S,3S)-3-amino-1-methoxybutan-2-yl)amino)-2-((1-(2,2-difluoroethyl)-3-methyl-1H-indazol-5-yl)amino)-5-fluoronicotinamide] | < 10 nM | 65 to 130 nM
8 | COc1ncc(Nc2nc(N[C@H](CC(C)C)[C@H](C)N)c(F)cc2C(N)=O)cc1-n1ccnn1 [Example 2-141, 6-(((2S,3R)-2-amino-5-methylhexan-3-yl)amino)-5-fluoro-2-((6-methoxy-5-(1H-1,2,3-triazol-1-yl)pyridin-3-yl)amino)nicotinamide] | 10 to 50 nM | 130 to 200 nM
9 | CC[C@@H](Nc1nc(Nc2cc(Cl)c3c(cnn3C)c2)c(C(N)=O)cc1F)[C@H](C)N [Example 2-148, 6-(((2S,3R)-2-aminopentan-3-yl)amino)-2-((7-chloro-1-methyl-1H-indazol-5-yl)amino)-5-fluoronicotinamide] | < 10 nM | 65 to 130 nM
10 | COC[C@@H](Nc1nc(Nc2cc(Cl)c3c(cnn3C)c2)c(C(N)=O)cc1F)[C@H](C)N [Example 2-149, 6-(((2S,3S)-3-amino-1-methoxybutan-2-yl)amino)-2-((7-chloro-1-methyl-1H-indazol-5-yl)amino)-5-fluoronicotinamide] | < 10 nM | 65 to 130 nM
11 | COc1nn(C)c2c(F)cc(Nc3nc(N[C@@H]4CCCC[C@@H]4N)c(F)cc3C(N)=O)cc12 [Example 2-150, 6-(((1R,2S)-2-aminocyclohexyl)amino)-5-fluoro-2-((7-fluoro-3-methoxy-1-methyl-1H-indazol-5-yl)amino)nicotinamide] | < 10 nM | 130 to 200 nM
12 | COc1nn(C)c2c(F)cc(Nc3nc(N[C@@H](CN)CC(C)C)c(F)cc3C(N)=O)cc12 [Example 2-151, (R)-6-((1-amino-4-methylpentan-2-yl)amino)-5-fluoro-2-((7-fluoro-3-methoxy-1-methyl-1H-indazol-5-yl)amino)nicotinamide] | < 10 nM | 130 to 200 nM
13 | CC[C@@H](Nc1nc(Nc2cc(F)c3c(c2)c(OC)nn3C)c(C(N)=O)cc1F)[C@H](C)N [Example 2-152, 6-(((2S,3R)-2-aminopentan-3-yl)amino)-5-fluoro-2-((7-fluoro-3-methoxy-1-methyl-1H-indazol-5-yl)amino)nicotinamide] | < 10 nM | 130 to 200 nM
14 | CCC[C@@H](Nc1nc(Nc2cc(F)c3c(c2)c(OC)nn3C)c(C(N)=O)cc1F)[C@H](C)N [Example 2-153, 6-(((2S,3R)-2-aminohexan-3-yl)amino)-5-fluoro-2-((7-fluoro-3-methoxy-1-methyl-1H-indazol-5-yl)amino)nicotinamide] | < 10 nM | 130 to 200 nM
15 | COC[C@@H](Nc1nc(Nc2cc(F)c3c(c2)c(OC)nn3C)c(C(N)=O)cc1F)[C@H](C)N [Example 2-159, 6-(((2S,3S)-3-amino-1-methoxybutan-2-yl)amino)-5-fluoro-2-((7-fluoro-3-methoxy-1-methyl-1H-indazol-5-yl)amino)nicotinamide] | < 10 nM | 65 to 130 nM
16 | CC(C)C[C@@H](Nc1nc(Nc2ccc3c(c2)c(OC(F)F)nn3C)c(C(N)=O)cc1F)[C@H](C)N [Example 2-172, 6-(((2S,3R)-2-amino-5-methylhexan-3-yl)amino)-2-((3-(difluoromethoxy)-1-methyl-1H-indazol-5-yl)amino)-5-fluoronicotinamide] | < 10 nM | 130 to 200 nM
17 | COC[C@@H](Nc1nc(Nc2ccc3c(c2)c(OC(F)F)nn3C)c(C(N)=O)cc1F)[C@H](C)N [Example 2-173, 6-(((2S,3S)-3-amino-1-methoxybutan-2-yl)amino)-2-((3-(difluoromethoxy)-1-methyl-1H-indazol-5-yl)amino)-5-fluoronicotinamide] | < 10 nM | 65 to 130 nM
18 | CCOC[C@@H](Nc1nc(Nc2ccc3c(cnn3C)c2)c(C(N)=O)cc1F)[C@H](C)N [Example 2-179, 6-(((2S,3S)-3-amino-1-ethoxybutan-2-yl)amino)-5-fluoro-2-((1-methyl-1H-indazol-5-yl)amino)nicotinamide] | 10 to 50 nM | 130 to 200 nM
19 | CCOC[C@@H](Nc1nc(Nc2cccc3c2cnn3CC)c(C(N)=O)cc1F)[C@H](C)N [Example 2-180, 6-(((2S,3S)-3-amino-1-ethoxybutan-2-yl)amino)-2-((1-ethyl-1H-indazol-4-yl)amino)-5-fluoronicotinamide] | 10 to 50 nM | 130 to 200 nM
20 | CCOC[C@@H](Nc1nc(Nc2ccc3c(cnn3CC)c2)c(C(N)=O)cc1F)[C@H](C)N [Example 2-182, 6-(((2S,3S)-3-amino-1-ethoxybutan-2-yl)amino)-2-((1-ethyl-1H-indazol-5-yl)amino)-5-fluoronicotinamide] | < 10 nM | 65 to 130 nM
21 | CC(C)C[C@H](CN)Nc1nc(Nc2cc(F)c3c(c2)c(N(C)C)nn3C)c(C(N)=O)cc1F [Example 2-185, (R)-6-((1-amino-4-methylpentan-2-yl)amino)-2-((3-(dimethylamino)-7-fluoro-1-methyl-1H-indazol-5-yl)amino)-5-fluoronicotinamide] | < 10 nM | 130 to 200 nM
22 | CC[C@@H](Nc1nc(Nc2cc(F)c3c(c2)c(N(C)C)nn3C)c(C(N)=O)cc1F)[C@H](C)N [Example 2-186, 6-(((2S,3R)-2-aminopentan-3-yl)amino)-2-((3-(dimethylamino)-7-fluoro-1-methyl-1H-indazol-5-yl)amino)-5-fluoronicotinamide] | < 10 nM | 65 to 130 nM
23 | CCC[C@@H](Nc1nc(Nc2cc(F)c3c(c2)c(N(C)C)nn3C)c(C(N)=O)cc1F)[C@H](C)N [Example 2-187, 6-(((2S,3R)-2-aminohexan-3-yl)amino)-2-((3-(dimethylamino)-7-fluoro-1-methyl-1H-indazol-5-yl)amino)-5-fluoronicotinamide] | < 10 nM | 65 to 130 nM
24 | COC[C@@H](Nc1nc(Nc2ccc3c(c2)c(C)nn3C)c(C(N)=O)cc1F)[C@H](C)N [Example 2-196, 6-(((2S,3S)-3-amino-1-methoxybutan-2-yl)amino)-2-((1,3-dimethyl-1H-indazol-5-yl)amino)-5-fluoronicotinamide] | < 10 nM | 65 to 130 nM
25 | CCC[C@@H](Nc1nc(Nc2cnc(OCC)c(-n3ccnn3)c2)c(C(N)=O)cc1F)[C@H](C)N [Example 2-207, 6-(((2S,3R)-2-aminohexan-3-yl)amino)-2-((6-ethoxy-5-(1H-1,2,3-triazol-1-yl)pyridin-3-yl)amino)-5-fluoronicotinamide] | < 10 nM | 65 to 130 nM
26 | Cc1nn(C)c2ccc(Nc3nc(N[C@@H]4CCOC[C@@H]4N)c(F)cc3C(N)=O)cc12 [Example 2-208, 6-(((3R,4R)-3-aminotetrahydro-2H-pyran-4-yl)amino)-2-((1,3-dimethyl-1H-indazol-5-yl)amino)-5-fluoronicotinamide] | < 10 nM | < 65 nM
27 | Cn1nc(F)c2cc(Nc3nc(N[C@@H]4CCOC[C@@H]4N)c(F)cc3C(N)=O)ccc21 [Example 2-209, 6-(((3R,4R)-3-aminotetrahydro-2H-pyran-4-yl)amino)-5-fluoro-2-((3-fluoro-1-methyl-1H-indazol-5-yl)amino)nicotinamide] | < 10 nM | 65 to 130 nM
28 | COc1nn(C)c2ccc(Nc3nc(N[C@@H]4CCOC[C@@H]4N)c(F)cc3C(N)=O)cc12 [Example 2-210, 6-(((3R,4R)-3-aminotetrahydro-2H-pyran-4-yl)amino)-5-fluoro-2-((3-methoxy-1-methyl-1H-indazol-5-yl)amino)nicotinamide] | < 10 nM | < 65 nM
29 | COc1nn(C)c2c(F)cc(Nc3nc(N[C@@H]4CCOC[C@@H]4N)c(F)cc3C(N)=O)cc12 [Example 2-211, 6-(((3R,4R)-3-aminotetrahydro-2H-pyran-4-yl)amino)-5-fluoro-2-((7-fluoro-3-methoxy-1-methyl-1H-indazol-5-yl)amino)nicotinamide] | < 10 nM | 65 to 130 nM
